Measured values from the supplement of paper PMC10307832.

Key:
Test in all cases: relative viability (nuclei count vs DMSO), 5 days (fraction); higher = more cells survive
ABC-1 = test system: ABC-1
How it was run: (§1)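 Five library-drug doses in √10 steps were combined with a fixed anchor-drug dose, or a single drug was given alone, by pin tool to lung cancer cell lines in 1536-well plates the day after seeding. Nuclei were stained and counted after 5 days. Relative viability is the nuclei count in treated wells over that in vehicle wells, taken as the median of duplicate plates.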

CAL-12T = test system: CAL-12T
How it was run: as §1

COR-L 105 = test system: COR-L 105
How it was run: as §1

ChaGo-K-1 = test system: ChaGo-K-1
How it was run: as §1

EMC-BAC-2 = test system: EMC-BAC-2
How it was run: as §1

EPLC-272H = test system: EPLC-272H
How it was run: as §1

HCC-15 = test system: HCC-15
How it was run: as §1

HCC-78 = test system: HCC-78
How it was run: as §1

HOP-62 = test system: HOP-62
How it was run: as §1

LXF-289 = test system: LXF-289
How it was run: as §1

NCI-H1666 = test system: NCI-H1666
How it was run: as §1

NCI-H1755 = test system: NCI-H1755
How it was run: as §1

NCI-H1915 = test system: NCI-H1915
How it was run: as §1

NCI-H1975 = test system: NCI-H1975
How it was run: as §1

NCI-H1993 = test system: NCI-H1993
How it was run: as §1

NCI-H2023 = test system: NCI-H2023
How it was run: as §1

NCI-H2085 = test system: NCI-H2085
How it was run: as §1

NCI-H2126 = test system: NCI-H2126
How it was run: as §1

NCI-H3122 = test system: NCI-H3122
How it was run: as §1

NCI-H322M = test system: NCI-H322M
How it was run: as §1

NCI-H358 = test system: NCI-H358
How it was run: as §1

NCI-H441 = test system: NCI-H441
How it was run: as §1

UMC-11 = test system: UMC-11
How it was run: as §1

SMILES: NC(=O)Nc1cc(-c2cccc(F)c2)sc1C(=O)N[C@H]1CCCNC1 [AZD7762] + Cc1nc(Nc2ncc(C(=O)Nc3c(C)cccc3Cl)s2)cc(N2CCN(CCO)CC2)n1 [Dasatinib] (partner 0.075 µM)
- relative viability (ABC-1; first compound 0.01 µM): 0.618
- relative viability (ABC-1; first compound 0.03162 µM): 0.586
- relative viability (ABC-1; first compound 0.1 µM): 0.473
- relative viability (ABC-1; first compound 0.3162 µM): 0.413
- relative viability (ABC-1; first compound 1 µM): 0.273
- relative viability (CAL-12T; first compound 0.01 µM): 0.637
- relative viability (CAL-12T; first compound 0.03162 µM): 0.463
- relative viability (CAL-12T; first compound 0.1 µM): 0.47
- relative viability (CAL-12T; first compound 0.3162 µM): 0.23
- relative viability (CAL-12T; first compound 1 µM): 0.0827
- relative viability (COR-L 105; first compound 0.01 µM): 0.324
- relative viability (COR-L 105; first compound 0.03162 µM): 0.342
- relative viability (COR-L 105; first compound 0.1 µM): 0.324
- relative viability (COR-L 105; first compound 0.3162 µM): 0.251
- relative viability (COR-L 105; first compound 1 µM): 0.239
- relative viability (ChaGo-K-1; first compound 0.01 µM): 0.572
- relative viability (ChaGo-K-1; first compound 0.03162 µM): 0.575
- relative viability (ChaGo-K-1; first compound 0.1 µM): 0.583
- relative viability (ChaGo-K-1; first compound 0.3162 µM): 0.487
- relative viability (ChaGo-K-1; first compound 1 µM): 0.583
- relative viability (EMC-BAC-2; first compound 0.01 µM): 0.373
- relative viability (EMC-BAC-2; first compound 0.03162 µM): 0.37
- relative viability (EMC-BAC-2; first compound 0.1 µM): 0.359
- relative viability (EMC-BAC-2; first compound 0.3162 µM): 0.346
- relative viability (EMC-BAC-2; first compound 1 µM): 0.322
- relative viability (EPLC-272H; first compound 0.01 µM): 0.338
- relative viability (EPLC-272H; first compound 0.03162 µM): 0.384
- relative viability (EPLC-272H; first compound 0.1 µM): 0.365
- relative viability (EPLC-272H; first compound 0.3162 µM): 0.3
- relative viability (EPLC-272H; first compound 1 µM): 0.0994
- relative viability (HCC-15; first compound 0.01 µM): 0.582
- relative viability (HCC-15; first compound 0.03162 µM): 0.592
- relative viability (HCC-15; first compound 0.1 µM): 0.592
- relative viability (HCC-15; first compound 0.3162 µM): 0.561
- relative viability (HCC-15; first compound 1 µM): 0.52
- relative viability (HCC-78; first compound 0.01 µM): 0.409
- relative viability (HCC-78; first compound 0.03162 µM): 0.606
- relative viability (HCC-78; first compound 0.1 µM): 0.451
- relative viability (HCC-78; first compound 0.3162 µM): 0.353
- relative viability (HCC-78; first compound 1 µM): 0.232
- relative viability (HOP-62; first compound 0.01 µM): 0.727
- relative viability (HOP-62; first compound 0.03162 µM): 0.72
- relative viability (HOP-62; first compound 0.1 µM): 0.682
- relative viability (HOP-62; first compound 0.3162 µM): 0.623
- relative viability (HOP-62; first compound 1 µM): 0.341
- relative viability (LXF-289; first compound 0.01 µM): 0.225
- relative viability (LXF-289; first compound 0.03162 µM): 0.245
- relative viability (LXF-289; first compound 0.1 µM): 0.219
- relative viability (LXF-289; first compound 0.3162 µM): 0.187
- relative viability (LXF-289; first compound 1 µM): 0.211
- relative viability (NCI-H1666; first compound 0.01 µM): 0.909
- relative viability (NCI-H1666; first compound 0.03162 µM): 0.88
- relative viability (NCI-H1666; first compound 0.1 µM): 0.838
- relative viability (NCI-H1666; first compound 0.3162 µM): 0.593
- relative viability (NCI-H1666; first compound 1 µM): 0.594
- relative viability (NCI-H1755; first compound 0.01 µM): 0.276
- relative viability (NCI-H1755; first compound 0.03162 µM): 0.428
- relative viability (NCI-H1755; first compound 0.1 µM): 0.416
- relative viability (NCI-H1755; first compound 0.3162 µM): 0.325
- relative viability (NCI-H1755; first compound 1 µM): 0.215
- relative viability (NCI-H1915; first compound 0.01 µM): 0.32
- relative viability (NCI-H1915; first compound 0.03162 µM): 0.319
- relative viability (NCI-H1915; first compound 0.1 µM): 0.327
- relative viability (NCI-H1915; first compound 0.3162 µM): 0.335
- relative viability (NCI-H1915; first compound 1 µM): 0.272
- relative viability (NCI-H1975; first compound 0.01 µM): 0.339
- relative viability (NCI-H1975; first compound 0.03162 µM): 0.347
- relative viability (NCI-H1975; first compound 0.1 µM): 0.42
- relative viability (NCI-H1975; first compound 0.3162 µM): 0.305
- relative viability (NCI-H1975; first compound 1 µM): 0.242
- relative viability (NCI-H1993; first compound 0.01 µM): 0.629
- relative viability (NCI-H1993; first compound 0.03162 µM): 0.599
- relative viability (NCI-H1993; first compound 0.1 µM): 0.481
- relative viability (NCI-H1993; first compound 0.3162 µM): 0.574
- relative viability (NCI-H1993; first compound 1 µM): 0.588
- relative viability (NCI-H2023; first compound 0.01 µM): 0.513
- relative viability (NCI-H2023; first compound 0.03162 µM): 0.425
- relative viability (NCI-H2023; first compound 0.1 µM): 0.328
- relative viability (NCI-H2023; first compound 0.3162 µM): 0.159
- relative viability (NCI-H2023; first compound 1 µM): 0.0942
- relative viability (NCI-H2085; first compound 0.01 µM): 0.247
- relative viability (NCI-H2085; first compound 0.03162 µM): 0.254
- relative viability (NCI-H2085; first compound 0.1 µM): 0.243
- relative viability (NCI-H2085; first compound 0.3162 µM): 0.201
- relative viability (NCI-H2085; first compound 1 µM): 0.216
- relative viability (NCI-H2126; first compound 0.01 µM): 0.658
- relative viability (NCI-H2126; first compound 0.03162 µM): 0.665
- relative viability (NCI-H2126; first compound 0.1 µM): 0.639
- relative viability (NCI-H2126; first compound 0.3162 µM): 0.648
- relative viability (NCI-H2126; first compound 1 µM): 0.402
- relative viability (NCI-H3122; first compound 0.01 µM): 0.893
- relative viability (NCI-H3122; first compound 0.03162 µM): 0.739
- relative viability (NCI-H3122; first compound 0.1 µM): 0.823
- relative viability (NCI-H3122; first compound 0.3162 µM): 0.544
- relative viability (NCI-H3122; first compound 1 µM): 0.625
- relative viability (NCI-H322M; first compound 0.01 µM): 0.258
- relative viability (NCI-H322M; first compound 0.03162 µM): 0.237
- relative viability (NCI-H322M; first compound 0.1 µM): 0.286
- relative viability (NCI-H322M; first compound 0.3162 µM): 0.279
- relative viability (NCI-H322M; first compound 1 µM): 0.256
- relative viability (NCI-H358; first compound 0.01 µM): 0.151
- relative viability (NCI-H358; first compound 0.03162 µM): 0.182
- relative viability (NCI-H358; first compound 0.1 µM): 0.188
- relative viability (NCI-H358; first compound 0.3162 µM): 0.167
- relative viability (NCI-H358; first compound 1 µM): 0.17
- relative viability (NCI-H441; first compound 0.01 µM): 0.773
- relative viability (NCI-H441; first compound 0.03162 µM): 0.68
- relative viability (NCI-H441; first compound 0.1 µM): 0.555
- relative viability (NCI-H441; first compound 0.3162 µM): 0.556
- relative viability (NCI-H441; first compound 1 µM): 0.384
- relative viability (UMC-11; first compound 0.01 µM): 0.516
- relative viability (UMC-11; first compound 0.03162 µM): 0.447
- relative viability (UMC-11; first compound 0.1 µM): 0.407
- relative viability (UMC-11; first compound 0.3162 µM): 0.392
- relative viability (UMC-11; first compound 1 µM): 0.215
